The values that follow come from US20210317092A1 (BAYER PHARMA AKTIENGESELLSCHAFT, priority 2016, published 2021).

The first experiment addresses T1, human Bradykinin B1 receptor (Homo sapiens, UniProt P46663).
T1 construct: host or cells: CHO-K1
T1 sequence (P46663 1-353): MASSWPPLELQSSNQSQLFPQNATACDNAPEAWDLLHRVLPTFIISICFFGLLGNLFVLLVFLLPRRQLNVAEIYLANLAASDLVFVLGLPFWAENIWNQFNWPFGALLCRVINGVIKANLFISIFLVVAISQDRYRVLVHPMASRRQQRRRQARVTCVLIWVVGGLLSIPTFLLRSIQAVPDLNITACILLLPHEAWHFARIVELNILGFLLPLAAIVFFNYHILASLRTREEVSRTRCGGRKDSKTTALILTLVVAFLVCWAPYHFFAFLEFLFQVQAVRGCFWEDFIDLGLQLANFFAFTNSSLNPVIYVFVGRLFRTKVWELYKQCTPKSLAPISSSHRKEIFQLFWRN
In words: Calcium flux Assay (FLIPR) with recombinant CHO-K1 cells expressing human Bradykinin B1 receptor, in presence (hB1 IC50) or absence (hB1 free IC50) of 0.1% BSA. The format is cell-based. To be noted: in absence of 0.1% BSA, read-out: hB1 free IC50. (In general: Calcium flux is commonly read through the fluorescence of an indicator in the cells.)
The IC50 is the point on the concentration scale where inhibition reaches its midpoint. Turning to `Cc1cc(-c2c(F)cc(NC(=O)C3(c4cccc(Cl)c4)CC3)cc2-c2nnn[nH]2)ccn1` [Example 246, 1-(3-chlorophenyl)-N-[3-fluoro-4-(2-methylpyridin-4-yl)-5-(1H-tetrazol-5-yl)phenyl] cyclopropane carboxamide], the IC50 was 16 nM.

Consider `O=C(Nc1ccc(-c2cnc(C(F)(F)F)nc2)c(-c2nnn[nH]2)c1)C1(c2ccc(Cl)c(F)c2)CC1` [Example 251, 1-(4-chloro-3-fluorophenyl)-N-{3-(1H-tetrazol-5-yl)-4-[2-(trifluoromethyl)pyrimidin-5-yl]phenyl} cyclopropane-carboxamide], for which the IC50 was 227 nM.

In the case of `O=C(Nc1ccc(-c2cnc(C(F)(F)F)nc2)c(-c2nnn[nH]2)c1)C1(c2ccc(Cl)cc2F)CC1` [Example 252, 1-(4-chloro-2-fluorophenyl)-N-{3-{1H-tetrazol-5-yl)-4-[2-(trifluoromethyl)pyrimidin-5-yl]phenyl} cyclopropane-carboxamide], the IC50 stood at 92.8 nM.

Consider `CCOc1ccc(-c2ccc(NC(=O)C3(c4cc(F)ccc4C)CC3)cc2-c2nnn[nH]2)cn1` [Example 254, N-[4-(6-ethoxypyridin-3-yl)-3-(1H-tetrazol-5-yl)phenyl]-1-(5-fluoro-2-methylphenyl)cy-clopropanecar-boxamide], for which the IC50 stood at 309 nM.

As to `COc1ccc(-c2ccc(NC(=O)C3(c4cc(F)ccc4C)CC3)cc2-c2nnn[nH]2)cc1OC` [Example 255, N-[3′,4′-dimethoxy-2-(1H-tetrazol-5-yl)biphenyl-4-yl]-1-(5-fluoro-2-methylphenyl)cy-clopropanecar-boxamide], the IC50 was 702 nM.

For `CCOc1ccc(-c2ccc(NC(=O)C3(c4cccc(F)c4C)CC3)cc2-c2nnn[nH]2)cn1` [Example 256, N-[4-(6-ethoxypyridin-3-yl)-3-(1H-tetrazol-5-yl)phenyl]-1-(3-fluoro-2-methylphenyl)cy-clopropanecar-boxamide], the IC50 turned out to be 288 nM.

As to `COc1ccc(-c2cc(F)c(NC(=O)C3(c4ccc(Cl)cc4)CC3)cc2-c2nnn[nH]2)cc1OC` [Example 264, 1-(4-Chlorophenyl)-N-[5-fluoro-3′,4′-dimethoxy-2-(1H-tetrazol-5-yl)biphenyl-4-yl]cyclopropane carboxamide], the IC50 came out at 2330 nM.

With `O=C(Nc1ccc(-c2ccc(C(F)F)nc2)c(-c2nnn[nH]2)c1)C1(c2ccc(F)cc2)CC1` [Example 268, N-{4-[6-(difluoromethyl)pyridin-3-yl]-3-(1H-tetrazol-5-yl)phenyl}-1-(4-fluorophenyl)cy-cloproapnecarbox-amide], the IC50 was determined as 92 nM.

On to `O=C(Nc1ccc(-c2ccc(C(F)F)nc2)c(-c2nnn[nH]2)c1)C1(c2ccc(Cl)cc2)CC1` [Example 269, 1-(4-chlorophenyl)-N-{4-[6-(difluoromethyl)pyridin-3-yl]-3-(1H-tetrazol-5-yl)phenyl}cyclopro-panecarboxa-mide], for which the IC50 turned out to be 13.2 nM.

For `O=C(Nc1ccc(-c2ccc(C(F)F)nc2)c(-c2nnn[nH]2)c1)C1(c2ccc(C(F)(F)F)cc2)CC1` [Example 270, N-{4-[6-(difluoromethyl)pyridin-3-yl]-3-(1H-tetrazol-5-yl)phenyl}-1-[4-(trifluoromethyl)phenyl]cyclopro-panecarboxamide], the half-inhibitory concentration (IC50) was 17.4 nM.

Take `O=C(Nc1ccc(-c2ccc(C(F)F)nc2)c(-c2nnn[nH]2)c1)C1(c2ccc(OC(F)(F)F)cc2)CC1` [Example 271, N-{4-[6-(difluoromethyl)pyridin-3-yl]-3-(1H-tetrazol-5-yl)phenyl}-1-[4-(trifluoromethoxy)phenyl]cyclo-propanecarboxa-mide]: the IC50 is 6.09 nM.

For `O=C(Nc1ccc(-c2ccc(C(F)F)nc2)c(-c2nnn[nH]2)c1)C1(c2ccc(Cl)c(F)c2)CC1` [Example 272, 1-(4-chloro-3-fluorophenyl)-N-{4-[6-(difluoromethyl)pyridin-3-yl]-3-(1H-tetrazol-5-yl)phenyl}cyclopro-panecarboxa-mide], the IC50 was 4.72 nM.

As for `O=C(Nc1ccc(-c2ccc(C(F)F)nc2)c(-c2nnn[nH]2)c1)C1(c2ccc(F)cc2F)CC1` [Example 273, N-{4-[6-(difluoromethyl)pyridin-3-yl]-3-(1H-tetrazol-5-yl)phenyl}-1-(2,4-difluorophenyl)cy-clopropanecar-boxamide], the IC50 is 24.9 nM.

Consider `O=C(Nc1ccc(-c2ccc(C(F)F)nc2)c(-c2nnn[nH]2)c1)C1(c2ccc(Cl)cc2F)CC1` [Example 274, 1-(4-chloro-2-fluorophenyl)-N-{4-[6-(difluoromethyl)pyridin-3-yl]-3-(1H-tetrazol-5-yl)phenyl}cyclopro-panecarboxa-mide], for which the IC50 came to 6.35 nM.

Consider `Cc1ccc(C2(C(=O)Nc3ccc(-c4ccc(C(F)F)nc4)c(-c4nnn[nH]4)c3)CC2)c(F)c1` [Example 275, N-{4-[6-(difluoromethyl)pyridin-3-yl]-3-(1H-tetrazol-5-yl)phenyl}-1-(2-fluoro-4-methylphenyl)cy-clopropanecar-boxamide], for which the IC50 amounted to 8.48 nM.

The experiment is the same for the next values; noted with them: in presence of 0.1% BSA, read-out: hB1 IC50.
Turning to `COc1ccc(-c2cc(F)c(NC(=O)C3(c4ccc(F)c(Cl)c4)CC3)cc2-c2nnn[nH]2)cc1C` [Example 230, 1-(3-Chloro-4-fluorophenyl)-N-[5-fluoro-4′-methoxy-3′-methyl-2-(1H-tetrazol-5-yl)biphenyl-4-yl]cyclopropane-carboxamide], the IC50 came out at 2100 nM.

For the compound `COc1ccc(-c2cc(F)c(NC(=O)C3(c4ccc(Cl)cc4F)CC3)cc2-c2nnn[nH]2)cc1C` [Example 231, 1-(4-Chloro-2-fluorophenyl)-N-[5-fluoro-4′-methoxy-3′-methyl-2-(1H-tetrazol-5-yl)biphenyl-4-yl]cyclopropane carboxamide], the IC50 was determined as 2200 nM.

Consider `COc1ccc(-c2c(F)cc(NC(=O)C3(c4ccc(F)cc4F)CC3)cc2-c2nnn[nH]2)cc1OC` [Example 235, 1-(2,4-Difluorophenyl)-N-[2-fluoro-3′,4′-dimethoxy-6-(1H-tetrazol-5-yl)biphenyl-4-yl]cyclopropane carboxamide], for which the IC50 is 53.6 nM.

In the case of `CCOc1ccc(-c2cc(C)c(NC(=O)C3(c4cccc(Cl)c4)CC3)cc2-c2nnn[nH]2)cc1OC` [Example 249, 1-(3-Chlorophenyl)-N-[4′-ethoxy-3′-methoxy-5-methyl-2-(1H-tetrazol-5-yl)biphenyl-4-yl]cyclopropane carboxamide], the IC50 is 1760 nM.

Turning to `COc1ccc(-c2c(C)cc(NC(=O)C3(c4cccc(Cl)c4)CC3)cc2-c2nnn[nH]2)cc1OC` [Example 250, 1-(3-Chlorophenyl)-N-[3′,4′-dimethoxy-2-methyl-6-(1H-tetrazol-5-yl)biphenyl-4-yl]cyclopropane carboxamide], the IC50 was found to be 240 nM.

Take `CCOc1ccc(-c2ccc(NC(=O)C3(c4cc(F)ccc4C)CC3)cc2-c2nnn[nH]2)cn1` [Example 254, N-[4-(6-ethoxypyridin-3-yl)-3-(1H-tetrazol-5-yl)phenyl]-1-(5-fluoro-2-methylphenyl)cy-clopropanecar-boxamide]: the IC50 is 245 nM.

For the compound `COc1ccc(-c2ccc(NC(=O)C3(c4cc(F)ccc4C)CC3)cc2-c2nnn[nH]2)cc1OC` [Example 255, N-[3′,4′-dimethoxy-2-(1H-tetrazol-5-yl)biphenyl-4-yl]-1-(5-fluoro-2-methylphenyl)cy-clopropanecar-boxamide], the IC50 turned out to be 452 nM.

As to `CCOc1ccc(-c2ccc(NC(=O)C3(c4cccc(F)c4C)CC3)cc2-c2nnn[nH]2)cn1` [Example 256, N-[4-(6-ethoxypyridin-3-yl)-3-(1H-tetrazol-5-yl)phenyl]-1-(3-fluoro-2-methylphenyl)cy-clopropanecar-boxamide], the IC50 is 274 nM.

Consider `COc1ccc(-c2ccc(NC(=O)C3(c4cccc(F)c4C)CC3)cc2-c2nnn[nH]2)cc1OC` [Example 257, N-[3′,4′-dimethoxy-2-(1H-tetrazol-5-yl)biphenyl-4-yl]-1-(3-fluoro-2-methylphenyl)cy-clopropanecar-boxamide], for which the IC50 stood at 916 nM.

With `O=C(Nc1cc(-c2nnn[nH]2)c(-c2ccc(C(F)(F)F)nc2)cc1O)C1(c2cccc(Cl)c2)CC1` [Example 262, 1-(3-chlorophenyl)-N-{2-hydroxy-5-(1H-tetrazol-5-yl)-4-[6-(trifluoromethyl)pyridin-3-yl]phenyl}cyclopro-panecarboxa-mide], the IC50 turned out to be 72.3 nM.

As for `COc1ccc(-c2cc(F)c(NC(=O)C3(c4ccc(Cl)cc4)CC3)cc2-c2nnn[nH]2)cc1OC` [Example 264, 1-(4-Chlorophenyl)-N-[5-fluoro-3′,4′-dimethoxy-2-(1H-tetrazol-5-yl)biphenyl-4-yl]cyclopropane carboxamide], the IC50 was found to be 834 nM.
